Where two headings read alike, the source gives them in different places. Marks after values point to notes of the source that are not given here.
Experiments:
human α1A‐adrenoceptor [1] = molecular target: T1, human α1A‐adrenoceptor (Homo sapiens, UniProt P35348); assay: ^3H‐prazosin whole‐cell radioligand binding, CHO‐α1A cells
T1 construct: expressed in transfected cells; host or cells: CHO-K1
T1 sequence (P35348 1-466): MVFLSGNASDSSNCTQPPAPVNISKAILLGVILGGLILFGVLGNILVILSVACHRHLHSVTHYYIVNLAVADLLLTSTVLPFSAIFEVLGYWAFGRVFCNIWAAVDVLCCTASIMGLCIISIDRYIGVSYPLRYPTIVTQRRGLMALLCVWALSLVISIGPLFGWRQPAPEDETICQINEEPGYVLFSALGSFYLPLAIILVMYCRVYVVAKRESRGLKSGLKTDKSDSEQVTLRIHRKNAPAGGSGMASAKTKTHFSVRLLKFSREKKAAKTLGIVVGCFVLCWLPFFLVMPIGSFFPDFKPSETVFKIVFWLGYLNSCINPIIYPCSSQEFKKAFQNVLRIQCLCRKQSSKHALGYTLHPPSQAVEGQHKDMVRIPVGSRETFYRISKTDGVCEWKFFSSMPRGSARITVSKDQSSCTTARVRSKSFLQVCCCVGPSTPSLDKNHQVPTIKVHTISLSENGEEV

[2] = molecular target: T2, human α1D‐adrenoceptor (full length) (Homo sapiens, UniProt P25100); assay: ^3H‐cAMP accumulation in the presence of 10 μM forskolin, CHO‐α1D cells; assay type: cell-based; conditions: CHO‐α1D cells; for cAMP (in presence of forskolin) Fold increase: fold increase of the forskolin response; for cAMP (in presence of forskolin) Log EC50: log values given negative
T2 construct: human α1D‐adrenoceptor (full length) were used; expressed in transfected cells; host or cells: CHO-K1
T2 sequence (P25100 1-572): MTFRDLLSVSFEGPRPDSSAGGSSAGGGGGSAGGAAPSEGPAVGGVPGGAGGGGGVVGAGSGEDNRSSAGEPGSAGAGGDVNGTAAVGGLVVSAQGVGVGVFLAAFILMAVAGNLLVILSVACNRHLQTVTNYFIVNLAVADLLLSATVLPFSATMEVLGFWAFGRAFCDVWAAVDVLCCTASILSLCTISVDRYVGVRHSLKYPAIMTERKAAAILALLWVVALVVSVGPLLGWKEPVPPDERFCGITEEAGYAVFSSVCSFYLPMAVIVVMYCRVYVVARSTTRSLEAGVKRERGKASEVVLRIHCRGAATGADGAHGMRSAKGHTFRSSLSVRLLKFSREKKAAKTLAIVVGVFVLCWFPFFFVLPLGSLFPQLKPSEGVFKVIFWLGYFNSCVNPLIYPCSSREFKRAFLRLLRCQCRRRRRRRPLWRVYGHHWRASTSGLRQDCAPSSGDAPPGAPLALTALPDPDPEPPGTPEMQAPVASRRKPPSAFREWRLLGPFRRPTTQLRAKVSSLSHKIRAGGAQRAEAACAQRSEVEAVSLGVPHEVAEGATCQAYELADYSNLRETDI

human α1B‐adrenoceptor [3] = molecular target: T3, human α1B‐adrenoceptor (Homo sapiens, UniProt P35368); assay: ERK1/2‐phosphorylation (Surefire Alphascreen), CHO‐α1B cells; assay type: cell-based
T3 construct: expressed in transfected cells; host or cells: CHO-K1
T3 sequence (P35368 1-520): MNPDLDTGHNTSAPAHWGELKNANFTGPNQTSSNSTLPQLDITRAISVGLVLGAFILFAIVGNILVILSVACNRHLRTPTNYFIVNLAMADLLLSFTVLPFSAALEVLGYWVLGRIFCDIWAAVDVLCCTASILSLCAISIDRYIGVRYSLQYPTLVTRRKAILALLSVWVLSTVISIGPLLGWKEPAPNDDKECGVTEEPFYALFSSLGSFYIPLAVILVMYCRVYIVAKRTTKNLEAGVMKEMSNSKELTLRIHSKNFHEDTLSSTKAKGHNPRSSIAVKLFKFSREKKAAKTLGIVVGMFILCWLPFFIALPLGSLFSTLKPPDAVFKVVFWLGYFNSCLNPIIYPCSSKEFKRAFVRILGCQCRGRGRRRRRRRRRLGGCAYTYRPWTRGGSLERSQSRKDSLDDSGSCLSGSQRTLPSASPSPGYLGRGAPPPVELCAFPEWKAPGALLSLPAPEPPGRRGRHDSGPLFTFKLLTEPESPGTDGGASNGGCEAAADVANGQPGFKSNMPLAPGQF

human α1A‐adrenoceptor [4] = molecular target: T1, human α1A‐adrenoceptor; assay: Intracellular free calcium mobilization, CHO‐α1A cells; assay type: cell-based
human α1B‐adrenoceptor [5] = molecular target: T3, human α1B‐adrenoceptor; assay: Intracellular free calcium mobilization, CHO‐α1B cells; assay type: cell-based
[6] = molecular target: T2, human α1D‐adrenoceptor (full length); assay: ERK1/2‐phosphorylation (Surefire Alphascreen), CHO‐α1D cells; assay type: cell-based
[7] = molecular target: T2, human α1D‐adrenoceptor (full length); assay: ^3H‐cAMP accumulation, CHO‐α1D cells; assay type: cell-based; conditions: cAMP accumulation without forskolin
human α1A‐adrenoceptor [8] = molecular target: T1, human α1A‐adrenoceptor; assay: ^3H‐cAMP accumulation, CHO‐α1A cells; assay type: cell-based; conditions: CHO‐α1A cells; for cAMP accumulation Log EC50: 5 h; for cAMP accumulation % forskolin: % of 10 µM forskolin response
human α1B‐adrenoceptor [9] = molecular target: T3, human α1B‐adrenoceptor; assay: ^3H‐cAMP accumulation in the presence of 10 μM forskolin, CHO‐α1B cells; assay type: cell-based; conditions: CHO‐α1B cells; for cAMP accumulation (in presence of forskolin) Fold increase: fold increase of the forskolin response
human α1B‐adrenoceptor [10] = molecular target: T3, human α1B‐adrenoceptor; assay: ^3H‐prazosin whole‐cell radioligand binding, CHO‐α1B cells
human α1A‐adrenoceptor [11] = molecular target: T1, human α1A‐adrenoceptor; assay: ^3H‐cAMP accumulation in the presence of 10 μM forskolin, CHO‐α1A cells; assay type: cell-based; conditions: CHO‐α1A cells; for cAMP accumulation (in presence of forskolin) Log EC50: 10 μM forskolin; for cAMP accumulation (in presence of forskolin) Fold increase: fold increase of the forskolin response
human α1B‐adrenoceptor [12] = molecular target: T3, human α1B‐adrenoceptor; assay: ^3H‐cAMP accumulation, CHO‐α1B cells; assay type: cell-based; conditions: CHO‐α1B cells
human α1A‐adrenoceptor [13] = molecular target: T1, human α1A‐adrenoceptor; assay: ERK1/2‐phosphorylation (Surefire Alphascreen), CHO‐α1A cells; assay type: cell-based
[14] = molecular target: T2, human α1D‐adrenoceptor (full length); assay: ^3H‐prazosin whole‐cell radioligand binding, CHO‐α1D cells
[15] = molecular target: T2, human α1D‐adrenoceptor (full length); assay: Intracellular free calcium mobilization, CHO‐α1D cells; assay type: cell-based
[16] = CHO‐α1D cells, log values given negative

SMILES: CCc1cccc(CC)c1NC1=NCCN1 [ST‐91]
- Log KD α1A, ^3H‐prazosin whole cell binding (human α1A‐adrenoceptor [1]; CHO‐α1A cells, given as log KD (negative), mean ± SEM): −5.94 ± 0.01
- Affinity selectivity ratio α1A vs α1B (human α1A‐adrenoceptor [1]; higher affinity for α1A than α1B): 35.5 fold
- Affinity selectivity ratio α1A vs α1D (human α1A‐adrenoceptor [1]; higher affinity for α1A than α1D): 5.0 fold
- cAMP (in presence of forskolin) Fold increase [2]: No response
- cAMP (in presence of forskolin) Log EC50 [2]: No response
- ERK1/2‐phosphorylation Log EC50 (human α1B‐adrenoceptor [3]; CHO‐α1B cells, for bi‐phasic responses the initial stimulatory part): −7.33 ± 0.12
- ERK1/2‐phosphorylation % PDBu (human α1B‐adrenoceptor [3]; CHO‐α1B cells, maximal response as % PDBu response, for bi‐phasic responses the initial stimulatory part): 83.6 ± 8.9%
- Log efficacy ratio KD /EC50 (human α1A‐adrenoceptor [4]; CHO‐α1A cells, binding KD and calcium EC50): 3.14
- Intracellular calcium release Log EC50 (human α1A‐adrenoceptor [4]; CHO‐α1A cells, given as log EC50 (negative)): −9.08 ± 0.11
- Intracellular calcium release % ionomycin (human α1A‐adrenoceptor [4]; CHO‐α1A cells, maximal response as % of 10 µM ionomycin): 64.6 ± 2.6%
- Intracellular calcium release Log EC50 (human α1B‐adrenoceptor [5]; CHO‐α1B cells, given as log EC50 (negative numbers)): −8.13 ± 0.17
- Log efficacy ratio KD /EC50 (human α1B‐adrenoceptor [5]; CHO‐α1B cells, intrinsic efficacy ratio, KD from binding / EC50 calcium, log): 3.74
- Intracellular calcium release % ionomycin (human α1B‐adrenoceptor [5]; CHO‐α1B cells, maximal response as % of 10 µM ionomycin response): 62.0 ± 2.1%
- ERK1/2‐phosphorylation Log EC50 [6, 16]: −5.23 ± 0.21
- ERK1/2‐phosphorylation % PDBu ([6]; CHO‐α1D cells, maximal response as % of PDBu): 21.1 ± 4.4%
- cAMP Log EC50 [7]: No response
- cAMP accumulation Log EC50 (human α1A‐adrenoceptor [8]): −6.80 ± 0.05
- cAMP accumulation % forskolin (human α1A‐adrenoceptor [8]): 108.2 ± 12.5%
- cAMP accumulation (in presence of forskolin) Fold increase (human α1B‐adrenoceptor [9]): 2.34 ± 0.09 fold
- cAMP accumulation (in presence of forskolin) Log EC50 (human α1B‐adrenoceptor [9]): −7.23 ± 0.07
- Log KD, ^3H‐prazosin binding (human α1B‐adrenoceptor [10]; CHO‐α1B cells, whole‐cell binding (from Table 1), given as log KD (negative numbers)): −4.39
- Log KD α1B, ^3H‐prazosin whole cell binding (human α1B‐adrenoceptor [10]; CHO‐α1B cells, given as log KD (negative), mean ± SEM): −4.39 ± 0.04
- cAMP accumulation (in presence of forskolin) Log EC50 (human α1A‐adrenoceptor [11]): −7.86 ± 0.14
- cAMP accumulation (in presence of forskolin) Fold increase (human α1A‐adrenoceptor [11]): 2.17 ±.10 fold
- cAMP accumulation Log EC50 (human α1B‐adrenoceptor [12]): −6.52 ± 0.04
- cAMP accumulation % forskolin (human α1B‐adrenoceptor [12]; % forskolin maximum response): 30.4 ± 3.5%
- ERK1/2‐phosphorylation Log EC50 (human α1A‐adrenoceptor [13]; CHO‐α1A cells, 2–4 min, ^a bi‐phasic: initial stimulatory part, ^b also active in parent CHO cells): −8.70 ± 0.06
- ERK1/2‐phosphorylation % PDBu (human α1A‐adrenoceptor [13]; CHO‐α1A cells, % of 10 µM PDBu, ^a bi‐phasic: initial stimulatory part): 79.5 ± 5.2%
- 3H‐prazosin binding Log KD ([14]; CHO‐α1D cells, whole‐cell binding (from Table 1), log values given negative): −5.24
- Log KD α1D, ^3H‐prazosin whole cell binding ([14]; CHO‐α1D cells, given as log KD (negative), mean ± SEM, 'early plateau' = specific binding not fully inhibited): −5.24 ± 0.09
- Affinity selectivity ratio α1B vs α1D ([14]; higher affinity for α1D than α1B): 7.1 fold
- Log efficacy ratio KD /EC50 ([15]; CHO‐α1D cells, intrinsic efficacy ratio, binding KD / calcium EC50): 1.10
- Intracellular calcium release Log EC50 [15, 16]: −6.34 ± 0.15
- Intracellular calcium release % ionomycin ([15]; CHO‐α1D cells, maximal response as % of 10 µM ionomycin): 6.3 ± 1.6%

SMILES: CC(N)C(O)c1ccc(O)c(O)c1 (stereo not drawn) [α‐Methylnorepinephrine]
- Affinity selectivity ratio α1A vs α1B (human α1A‐adrenoceptor [1]): >20.9 fold
- Log KD α1A, ^3H‐prazosin whole cell binding (human α1A‐adrenoceptor [1]): −4.32 ± 0.04
- cAMP (in presence of forskolin) Fold increase [2]: 1.23 ± 0.06
- cAMP (in presence of forskolin) Log EC50 [2]: −6.05 ± 0.12
- ERK1/2‐phosphorylation % PDBu (human α1B‐adrenoceptor [3]): 90.6 ± 4.4%
- ERK1/2‐phosphorylation Log EC50 (human α1B‐adrenoceptor [3]): −6.75 ± 0.13
- Intracellular calcium release % ionomycin (human α1A‐adrenoceptor [4]): 65.2 ± 2.6%
- Intracellular calcium release Log EC50 (human α1A‐adrenoceptor [4]): −7.69 ± 0.07
- Log efficacy ratio KD /EC50 (human α1A‐adrenoceptor [4]): 3.37
- Intracellular calcium release % ionomycin (human α1B‐adrenoceptor [5]): 69.1 ± 2.6%
- Intracellular calcium release Log EC50 (human α1B‐adrenoceptor [5]): −8.10 ± 0.11
- Log efficacy ratio KD /EC50 (human α1B‐adrenoceptor [5]): >5.10
- ERK1/2‐phosphorylation % PDBu [6]: 27.7 ± 4.9%
- ERK1/2‐phosphorylation Log EC50 [6]: −5.74 ± 0.11
- cAMP Log EC50 [7]: No response
- cAMP accumulation Log EC50 (human α1A‐adrenoceptor [8]): −5.09 ± 0.06
- cAMP accumulation % forskolin (human α1A‐adrenoceptor [8]): 166.8 ± 7.4%
- cAMP accumulation (in presence of forskolin) Fold increase (human α1B‐adrenoceptor [9]): 3.09 ± 0.21 fold
- cAMP accumulation (in presence of forskolin) Log EC50 (human α1B‐adrenoceptor [9]): −5.56 ± 0.05
- Log IC50 α1B, ^3H‐prazosin whole cell binding (human α1B‐adrenoceptor [10]): IC50>−3
- cAMP accumulation (in presence of forskolin) Log EC50 (human α1A‐adrenoceptor [11]): −5.74 ± 0.10
- cAMP accumulation (in presence of forskolin) Fold increase (human α1A‐adrenoceptor [11]): 2.49 ± 0.05 fold
- cAMP accumulation % forskolin at 100 µM (human α1B‐adrenoceptor [12]; response at 100 µM ligand (no EC50 given)): 129.7 ± 20.5%
- ERK1/2‐phosphorylation % PDBu (human α1A‐adrenoceptor [13]): 87.5 ± 6.3%
- ERK1/2‐phosphorylation Log EC50 (human α1A‐adrenoceptor [13]): −6.86 ± 0.12 ^a
- 3H‐prazosin binding Log KD [14]: −4.84
- Affinity selectivity ratio α1A vs α1D [14]: 3.3 fold
- Affinity selectivity ratio α1B vs α1D [14]: >69.2 fold
- Log KD α1D, ^3H‐prazosin whole cell binding [14]: −4.84 ± 0.14^early plateau
- Intracellular calcium release % ionomycin [15]: 29.9 ± 3.6%
- Intracellular calcium release Log EC50 [15]: −7.02 ± 0.10
- Log efficacy ratio KD /EC50 [15]: 2.18
